Test results from ChEMBL document CHEMBL1139711, “A novel oxazine ring closure reaction affording (Z)-((E)-2-styrylbenzo[b]furo[3,2-d][1,3]oxazin-4-ylideno)acetaldehydes and their anti-osteoclastic bone resorption activity” (Bioorg Med Chem Lett, 2006).
Active and inactive are the calls of the source. No cut-off for these calls is given here.

tested on: Osteoclast; assay: Bone resorption activity assessed as inhibition of PGE2-stimulated pit formation in ddY mouse osteoclasts; format: functional, cell-based

Row | SMILES | Activity
1 | C[C@]12CC[C@@H]3c4ccc(O)cc4CC[C@H]3[C@@H]1CC[C@@H]2O | Active
2 | O=C/C=C1\OC(/C=C/c2ccccc2)=Nc2c1oc1ccc(Br)cc21 | inactive
3 | CCOC(=O)/C=C/C=C1\OC(/C=C/c2ccccc2)=Nc2c1oc1ccc(Br)cc21 | Active
